# Data reported in patent publication US7491821B2, “Inhibitors of P2X3” (Roche Palo Alto LLC, priority 2005, dated 2009).
# Where a name gives a salt, the structure may show the parent alone.
row,melting point [°C],Compound
1,133.9 to 139.9,"CC(=O)N1CCN(C[C@@H](C)NC(=O)c2cc3c(-c4ccccc4)nn(C)c3s2)CC1 (as salt: salt) [compound 93, (R)-1-methyl-3-phenyl-1H-thieno[2,3-c]pyrazole-5-carboxylic acid [2-(4-acetyl-piperazin-1-yl)-1-methyl-ethyl]-amide]"
2,133.5 to 140.1,"CC(=O)N1CCN(C[C@H](C)NC(=O)c2cc3c(-c4ccccc4)nn(C)c3s2)CC1 (as salt: salt) [compound 94, (S)-1-methyl-3-phenyl-1H-thieno[2,3-c]pyrazole-5-carboxylic acid [2-(4-acetyl-piperazin-1-yl)-1-methyl-ethyl]-amide]"
